PubChem BioAssay AID2060503 (Molecular Pharmacology Branch, DTP, NCI, 2025)
Values joined by “and” are separate entries in the source; they are usually repeats but may differ in a detail not shown here. Equal values may be shown once.

System: 817829-284-R-J1-PDC complex spheroids, viability
Experiment: Anticancer human tumor 817829-284-R-J1-PDC patient-derived colon adenocarcinoma cell line growth inhibition [GQUAD]
Settings: for viability, T/C: stronger effect = lower value; active = viability on the fitted dose curve at most 10% of control; inactive = the rest
Description: DNA G-quadruplex Stabilizer Agents in Combinations in Complex Spheroids
A high-throughput screen of multi-cell type tumor spheroids was designed to identify active combinations of DNA G-quadruplex stabilizer agents and targeted small molecules. Complex spheroids include a stromal component modeled by human endothelial cells (HUVEC) and fibroblasts modeled by human mesenchymal stem cells (MSCs). The concentration ranges selected for each drug and investigational agent were based upon clinically achievable concentrations if the clinical Cmax of the agent was known.
Compounds. The drugs and investigational agents: pidnarulex (CX-5461; NSC782164), APTO-253 (NSC789042), BRACO-19 (NSC847499), peposertib (NSC802822), ceralasertib (NSC780249), elimusertib (NSC800525), camonsertib (NSC841442), AZD-1390 (NSC803789), olaparib (NSC753686), talazoparib (NSC767125), ART-558 (NSC835418), sotorasib (NSC818433), MRTX-1133 (NSC836407), SN-38 (NSC673596), topotecan (NSC609699), etoposide (NSC141540), doxorubicin (NSC123127), gemcitabine (NSC613327), 5-fluorouracil (NSC19893), paclitaxel (NSC125973), vemurafenib (NSC761431), panobinostat (NSC761190), R-306465 (JNJ-16241199; NSC773264), adavosertib (NSC754352), TP-3654 (NSC805149), carboplatin (NSC241240), KSQ-4279 (NSC840948), and staurosporine (NSC755774) were obtained from the National Cancer Institute (NCI) Developmental Therapeutics Program Chemical Repository (34). The FDA-approved anticancer drug set is available from the NCI Developmental Therapeutics Program. […] The stock solutions were prepared in dimethyl sulfoxide (DMSO, Sigma-Aldrich, St. Louis, MO, cat. D2650) at 800-fold the tested concentration and stored at -70 degrees C prior to their use. All drugs and investigational agents were tested over a range starting from a high concentration at or near the clinical Cmax and decreasing in half-log increments. If the clinical Cmax for an agent had not been determined, the highest concentration tested was 10 microM.
2.3 Cell Culture. All cells were maintained in an incubator at 37 degrees C and 5% CO2 with 95% humidity. The PDC lines were cultured according to standard operating procedures established by the NCI PDMR. All PDCs were thawed and cultured in Matrigel-coated flasks prepared with a working solution of 1X Ham's F-12 nutrient mix, without supplementation (Invitrogen, cat. 11765054), 100 U/mL penicillin-streptomycin (Invitrogen, cat. 15140122), and 2.5% Matrigel (Corning Inc., cat. 354248) for the first three passages. The 857933-349-R-J2-PDC line was cultured in 6C/Colon 1B media, which includes advanced DMEM/F-12 (Thermo Fisher Scientific, cat. 12634028), 10 mM HEPES (Thermo Fisher Scientific, cat. 15630080), 1X GlutaMAX supplement (Thermo Fisher Scientific, cat. 35050061), 0.1 mg/mL primocin (InvivoGen, cat. ant-pm-2), 10% defined fetal bovine serum, heat inactivated (HyClone Laboratories Inc., cat. SH30070.03HI), 50% L-WRN conditioned media (ATCC, cat. CRL-3276), 1.25 mM N-Acetyl-L-cysteine (Sigma-Aldrich, cat. A9165), 10 mM nicotinamide (Sigma-Aldrich, cat. N0636), 1X B-27 supplement (Thermo Fisher Scientific, cat. 17504044), 1X N-2 supplement (Thermo Fisher Scientific, cat. 17502048), 10 microM Y-27632 dihydrochloride (Tocris Bioscience, cat. 1254), and 50 ng/mL human EGF recombinant protein (Thermo Fisher Scientific, cat. PHG0311). The 485176-168-R4-J1-PDC line was cultured in Panc media, which includes all 6C/Colon 1B media components plus 100 ng/mL human FGF-10 (Thermo Fisher Scientific, cat. 100-26), 500 nM SB-431542 (Selleckchem, cat. S1067), and gastrin (Tocris, cat. 3006).
[…]

[1] = curve of first compound, second compound 0.0316 µM
[2] = curve of first compound, second compound 0.1 µM
[3] = curve of first compound, second compound 0.316 µM
[4] = curve of first compound, second compound 1 µM
[5] = curve of first compound, second compound 3.16 µM
[6] = curve of first compound, second compound 10 µM
[7] = second compound 0.0316 µM, first compound 0.0316 µM
[8] = second compound 0.0316 µM, first compound 0.1 µM
[9] = second compound 0.0316 µM, first compound 0.316 µM
[10] = second compound 0.0316 µM, first compound 1 µM
[11] = second compound 0.0316 µM, first compound 3.16 µM
[12] = second compound 0.0316 µM, first compound 10 µM
[13] = second compound 0.1 µM, first compound 0.0316 µM
[14] = second compound 0.1 µM, first compound 0.1 µM
[15] = second compound 0.1 µM, first compound 0.316 µM
[16] = second compound 0.1 µM, first compound 1 µM
[17] = second compound 0.1 µM, first compound 3.16 µM
[18] = second compound 0.1 µM, first compound 10 µM
[19] = second compound 0.316 µM, first compound 0.0316 µM
[20] = second compound 0.316 µM, first compound 0.1 µM
[21] = second compound 0.316 µM, first compound 0.316 µM
[22] = second compound 0.316 µM, first compound 1 µM
[23] = second compound 0.316 µM, first compound 3.16 µM
[24] = second compound 0.316 µM, first compound 10 µM
[25] = second compound 1 µM, first compound 0.0316 µM
[26] = second compound 1 µM, first compound 0.1 µM
[27] = second compound 1 µM, first compound 0.316 µM
[28] = second compound 1 µM, first compound 1 µM
[29] = second compound 1 µM, first compound 3.16 µM
[30] = second compound 1 µM, first compound 10 µM
[31] = second compound 3.16 µM, first compound 0.0316 µM
[32] = second compound 3.16 µM, first compound 0.1 µM
[33] = second compound 3.16 µM, first compound 0.316 µM
[34] = second compound 3.16 µM, first compound 1 µM
[35] = second compound 3.16 µM, first compound 3.16 µM
[36] = second compound 3.16 µM, first compound 10 µM
[37] = second compound 10 µM, first compound 0.0316 µM
[38] = second compound 10 µM, first compound 0.1 µM
[39] = second compound 10 µM, first compound 0.316 µM
[40] = second compound 10 µM, first compound 1 µM
[41] = second compound 10 µM, first compound 3.16 µM
[42] = second compound 10 µM, first compound 10 µM
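Note: spheroids exposed to agents for 7 days before readout.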
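Throughout, for viability, T/C: percent viability relative to DMSO vehicle control taken as 100%.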

CC(=O)O[C@H]1C(=O)[C@@]2(C)[C@H]([C@H](OC(=O)c3ccccc3)[C@]3(O)C[C@H](OC(=O)[C@H](O)[C@@H](NC(=O)c4ccccc4)c4ccccc4)C(C)=C1C3(C)C)[C@]1(OC(C)=O)CO[C@@H]1C[C@@H]2O
5.56% and 11.2% and 8.51%: viability, T/C (compound 0.0316 µM)
< 31.6 nM: IC50 (curve of compound)
active: viability, T/C (compound 0.1 µM) 5.44% and 6.01% and 3.69% | viability, T/C (compound 0.316 µM) 5.01% and 4.83% and 4.1% | viability, T/C (compound 1 µM) 4.55% and 4.35% and 3.93% | viability, T/C (compound 3.16 µM) 3.56% and 3.34% and 3.72% | viability, T/C (compound 10 µM) 5.03% and 4.92% and 4.14%

C=CC(=O)N1CCN(c2nc(=O)n(-c3c(C)ccnc3C(C)C)c3nc(-c4c(O)cccc4F)c(F)cc23)C(C)C1 (stereo not drawn) + Cc1[nH]c2ccc(F)cc2c1-c1nc2c3cccnc3c3ncccc3c2[nH]1
inactive: viability, T/C [7] 106% | viability, T/C [8] 81% | viability, T/C [9] 109% | viability, T/C [10] 74.4% | viability, T/C [11] 106% | viability, T/C [12] 97.5% | viability, T/C [13] 87.2% | viability, T/C [14] 90.1% | viability, T/C [15] 88.5% | viability, T/C [16] 91.2% | viability, T/C [17] 108% | viability, T/C [18] 92.8% | viability, T/C [19] 84.3% | viability, T/C [20] 102% | viability, T/C [21] 104% | viability, T/C [22] 101% | viability, T/C [23] 102% | viability, T/C [24] 104% | viability, T/C [25] 82.1% | viability, T/C [26] 97% | viability, T/C [27] 93.6% | viability, T/C [28] 97.6% | viability, T/C [29] 98.2% | viability, T/C [30] 79.8% | viability, T/C [31] 102% | viability, T/C [32] 99.3% | viability, T/C [33] 75.7% | viability, T/C [34] 68.2% | viability, T/C [35] 51.7% | viability, T/C [36] 32.4% | viability, T/C [37] 11.3% | viability, T/C [38] 18.4% | viability, T/C [39] 44.3% | viability, T/C [40] 15.1% | viability, T/C [41] 11.6% | viability, T/C [42] 17.1%
< 31.6 nM: IC50 [6]
> 10000 nM: IC50 [1] | IC50 [2] | IC50 [3] | IC50 [4]
3260 nM: IC50 [5]

O=C(NO)c1cnc(N2CCN(S(=O)(=O)c3ccc4ccccc4c3)CC2)nc1
active: viability, T/C (compound 0.316 µM) 0.33% and 5.46% and 5.25% | viability, T/C (compound 1 µM) 0.17% and 0.29% and 0.13% | viability, T/C (compound 3.16 µM) 0.1% and 0.26% and 0.04% | viability, T/C (compound 10 µM) 0.15% and 0.25% and 0.07%
67.9 nM and 186 nM and 121 nM: IC50 (curve of compound)
inactive: viability, T/C (compound 0.0316 µM) 114% and 111% and 117% | viability, T/C (compound 0.1 µM) 17.6% and 102% and 59%

COc1ncnc(C2CC2)c1-c1ncc2cnn(Cc3ccc(-c4nc(C(F)(F)F)cn4C(C)C)cc3)c2n1 + Cc1cnc(CNC(=O)c2c(=O)c3ccc(N4CCCN(C)CC4)nc3n3c2sc2ccccc23)cn1
> 10000 nM: IC50 [1]
inactive: viability, T/C [7] 63.5% | viability, T/C [8] 51.9% | viability, T/C [9] 55.5% | viability, T/C [10] 43.7% | viability, T/C [11] 66% | viability, T/C [12] 64.1% | viability, T/C [13] 28.1% | viability, T/C [14] 31.1% | viability, T/C [15] 28.2% | viability, T/C [16] 29.5% | viability, T/C [17] 28.4% | viability, T/C [18] 33.2% | viability, T/C [19] 19.2% | viability, T/C [20] 26.4% | viability, T/C [21] 20.8% | viability, T/C [22] 25.4% | viability, T/C [23] 25.6% | viability, T/C [24] 22.8% | viability, T/C [25] 19.3% | viability, T/C [26] 22.8% | viability, T/C [27] 21.1% | viability, T/C [28] 20.8% | viability, T/C [29] 22.1% | viability, T/C [30] 18% | viability, T/C [31] 16.9% | viability, T/C [32] 18.9% | viability, T/C [33] 17.7% | viability, T/C [34] 19.4% | viability, T/C [35] 21.6% | viability, T/C [36] 18.1%
< 31.6 nM: IC50 [2] | IC50 [3] | IC50 [4] | IC50 [5] | IC50 [6]
active: viability, T/C [37] 0.12% | viability, T/C [38] 0.17% | viability, T/C [39] 0.18% | viability, T/C [40] 0.16% | viability, T/C [41] 0.21% | viability, T/C [42] 0.22%
